Assay results from patent US20230278972A1, “SUBSTITUTED HALOALKYL SULFONANILIDE HERBICIDES” (FMC Corporation, priority 2020, published 2023).

Assays:
Format in all cases: in vivo
[1] = test system: barnyardgrass (Echinochloa crus-galli); assay: Test A preemergence, barnyardgrass; conditions: Preemergence; for Plant response rating, Barnyardgrass: 0 to 100 scale (0 no effect, 100 complete control)
Procedure, shortened: (§1)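 Postemergence ratings come from foliar sprays onto one- to two-leaf plants of 2 to 10 cm grown in loam/sand; preemergence ratings come from a directed spray onto the soil of newly seeded pots. Formulation was a surfactant-containing non-phytotoxic solvent blend.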

kochia (Bassia scoparia) [2] = assay: Test A preemergence, kochia; conditions: Preemergence; for Kochia plant response rating: visual injury on 0 to 100 scale (0 no effect, 100 complete control), approximately 10 days; for Plant response rating, Kochia: 0 to 100 scale (0 no effect, 100 complete control)
Procedure, shortened: as §1

[3] = test system: ragweed (common ragweed, Ambrosia artemisiifolia); assay: Test A preemergence, ragweed; conditions: Preemergence; for Ragweed plant response rating: visual injury on 0 to 100 scale (0 no effect, 100 complete control), approximately 10 days; for Plant response rating, Ragweed: 0 to 100 scale (0 no effect, 100 complete control)
Procedure, shortened: as §1

[4] = test system: Ryegrass, Italian (Italian ryegrass, Lolium multiflorum); assay: Test A preemergence, Ryegrass, Italian; conditions: Preemergence; for Ryegrass, Italian plant response rating: visual injury on 0 to 100 scale (0 no effect, 100 complete control), approximately 10 days; for Plant response rating, Ryegrass, Italian: 0 to 100 scale (0 no effect, 100 complete control)
Procedure, shortened: as §1

[5] = test system: Foxtail, Giant (giant foxtail, Setaria faberi); assay: Test A preemergence, Foxtail, Giant; conditions: Preemergence; for Foxtail, Giant plant response rating: visual injury on 0 to 100 scale (0 no effect, 100 complete control), approximately 10 days; for Plant response rating, Foxtail, Giant: 0 to 100 scale (0 no effect, 100 complete control)
Procedure, shortened: as §1

[6] = test system: pigweed (Amaranthus retroflexus); assay: Test A preemergence, pigweed; conditions: for Pigweed plant response rating: visual injury on 0 to 100 scale (0 no effect, 100 complete control), approximately 10 days; for Plant response rating, Pigweed: 0 to 100 scale (0 no effect, 100 complete control)
Procedure, shortened: (§2)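 Barnyardgrass, wheat and galium were treated postemergence at the one- to two-leaf stage (2 to 10 cm) with chemicals formulated in non-phytotoxic solvent plus surfactant, grown in loam soil–sand pots. Pigweed was sown in the same blend and given a preemergence directed soil spray.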

[7] = test system: barnyardgrass (Echinochloa crus-galli); assay: Test A postemergence, barnyardgrass; conditions: Postemergence, 0 to 100 scale (0 no effect, 100 complete control); for Plant response rating, Barnyardgrass: 125 g ai/ha; for Barnyardgrass plant response rating: 500 g ai/ha, visual injury vs untreated controls after approx. 10 days
Procedure, shortened: as §2

kochia (Bassia scoparia) [8] = assay: Test A postemergence, kochia; conditions: Postemergence, 0 to 100 scale (0 no effect, 100 complete control); for Plant response rating, Kochia: 125 g ai/ha; for Kochia plant response rating: 500 g ai/ha, visual injury vs untreated controls after approx. 10 days
Procedure, shortened: as §1

[9] = test system: ragweed (common ragweed, Ambrosia artemisiifolia); assay: Test A postemergence, ragweed; conditions: Postemergence, 0 to 100 scale (0 no effect, 100 complete control); for Plant response rating, Ragweed: 125 g ai/ha; for Ragweed plant response rating: 500 g ai/ha, visual injury vs untreated controls after approx. 10 days
Procedure, shortened: as §1

[10] = test system: Ryegrass, Italian (Italian ryegrass, Lolium multiflorum); assay: Test A postemergence, Ryegrass, Italian; conditions: Postemergence, 0 to 100 scale (0 no effect, 100 complete control); for Plant response rating, Ryegrass, Italian: 125 g ai/ha; for Ryegrass, Italian plant response rating: 500 g ai/ha, visual injury vs untreated controls after approx. 10 days
Procedure, shortened: as §1

[11] = test system: Foxtail, Giant (giant foxtail, Setaria faberi); assay: Test A postemergence, Foxtail, Giant; conditions: Postemergence, 0 to 100 scale (0 no effect, 100 complete control); for Plant response rating, Foxtail, Giant: 125 g ai/ha; for Foxtail, Giant plant response rating: 500 g ai/ha, visual injury vs untreated controls after approx. 10 days
Procedure, shortened: as §1

[12] = test system: pigweed (Amaranthus retroflexus); assay: Test A postemergence, pigweed; conditions: Postemergence, 0 to 100 scale (0 no effect, 100 complete control); for Plant response rating, Pigweed: 125 g ai/ha; for Pigweed plant response rating: 500 g ai/ha, visual injury vs untreated controls after approx. 10 days
Procedure, shortened: as §1

[13] = test system: wheat (Triticum aestivum); assay: Test A postemergence, wheat; conditions: Postemergence, 0 to 100 scale (0 no effect, 100 complete control); for Plant response rating, Wheat: 125 g ai/ha; for Wheat plant response rating: 500 g ai/ha, visual injury vs untreated controls after approx. 10 days
Procedure, shortened: as §2

corn (Zea mays) = assay: Test A postemergence, corn; conditions: Postemergence, 0 to 100 scale (0 no effect, 100 complete control); for Plant response rating, Corn: 125 g ai/ha; for Corn plant response rating: 500 g ai/ha, visual injury vs untreated controls after approx. 10 days
Procedure, shortened: as §1

[14] = test system: blackgrass (Alopecurus myosuroides); assay: Test A postemergence, blackgrass; conditions: Postemergence, 0 to 100 scale (0 no effect, 100 complete control); for Plant response rating, Blackgrass: 125 g ai/ha; for Blackgrass plant response rating: 500 g ai/ha, visual injury vs untreated controls after approx. 10 days
Procedure, shortened: as §1

[15] = test system: galium (catchweed bedstraw, Galium aparine); assay: Test A postemergence, galium; conditions: Postemergence, 0 to 100 scale (0 no effect, 100 complete control); for Plant response rating, Galium: 125 g ai/ha; for Galium plant response rating: 500 g ai/ha, visual injury vs untreated controls after approx. 10 days
Procedure, shortened: as §2

[16] = 125 g ai/ha, visual injury, approx. 10 days

## Cc1cc(C)c(C(=O)N(C)CC2CC2)cc1NS(=O)(=O)C(F)(F)F [Compound 107]
[1]; 125 g ai/ha, visual injury on 0 to 100 scale (0 no effect, 100 complete control), approximately 10 days
  Barnyardgrass plant response rating: 90
[1]; 500 g ai/ha
  Plant response rating, Barnyardgrass: 100
Kochia (Bassia scoparia) [2]; 125 g ai/ha
  Kochia plant response rating: 0
Kochia (Bassia scoparia) [2]; 500 g ai/ha
  Plant response rating, Kochia: 50
[3]; 125 g ai/ha
  Ragweed plant response rating: 50
[3]; 500 g ai/ha
  Plant response rating, Ragweed: 80
[4]; 125 g ai/ha
  Ryegrass, Italian plant response rating: 60
[4]; 500 g ai/ha
  Plant response rating, Ryegrass, Italian: 90
[5]; 125 g ai/ha
  Foxtail, Giant plant response rating: 60
[5]; 500 g ai/ha
  Plant response rating, Foxtail, Giant: 100
[6]; 125 g ai/ha
  Pigweed plant response rating: 80
[6]; 500 g ai/ha
  Plant response rating, Pigweed: 90
[7]; visual injury approx. 10 days
  Plant response rating, Barnyardgrass: 70
[7]
  Barnyardgrass plant response rating: 90
Kochia (Bassia scoparia) [8]; visual injury approx. 10 days
  Plant response rating, Kochia: 20
Kochia (Bassia scoparia) [8]
  Kochia plant response rating: 40
[9]; visual injury approx. 10 days
  Plant response rating, Ragweed: 70
[9]
  Ragweed plant response rating: 90
[10]; visual injury approx. 10 days
  Plant response rating, Ryegrass, Italian: 0
[10]
  Ryegrass, Italian plant response rating: 30
[11]; visual injury approx. 10 days
  Plant response rating, Foxtail, Giant: 10
[11]
  Foxtail, Giant plant response rating: 50
[12]; visual injury approx. 10 days
  Plant response rating, Pigweed: 50
[12]
  Pigweed plant response rating: 60
[13]; visual injury approx. 10 days
  Plant response rating, Wheat: 0
[13]
  Wheat plant response rating: 40
Corn (Zea mays); visual injury approx. 10 days
  Plant response rating, Corn: 0
Corn (Zea mays)
  Corn plant response rating: 80
[14]; visual injury approx. 10 days
  Plant response rating, Blackgrass: 0
[14]
  Blackgrass plant response rating: 30
[15]; visual injury approx. 10 days
  Plant response rating, Galium: 90
[15]
  Galium plant response rating: 90

## Cc1cc(F)c(C(=O)N2CCC(C#N)CC2)cc1NS(=O)(=O)C(F)(F)F [Compound 236]
[1]; [16]
  Plant response rating, Barnyardgrass: 0
[1]; 500 g ai/ha
  Plant response rating, Barnyardgrass: 0
Kochia (Bassia scoparia) [2]; [16]
  Plant response rating, Kochia: 20
Kochia (Bassia scoparia) [2]; 500 g ai/ha
  Kochia plant response rating: 70
[3]; [16]
  Plant response rating, Ragweed: 50
[3]; 500 g ai/ha
  Ragweed plant response rating: 80
[4]; [16]
  Plant response rating, Ryegrass, Italian: 20
[4]; 500 g ai/ha
  Ryegrass, Italian plant response rating: 60
[5]; [16]
  Plant response rating, Foxtail, Giant: 30
[5]; 500 g ai/ha
  Foxtail, Giant plant response rating: 60
[6]; [16]
  Plant response rating, Pigweed: 60
[6]; 500 g ai/ha
  Pigweed plant response rating: 90
[7]
  Plant response rating, Barnyardgrass: 50
  Barnyardgrass plant response rating: 60
Kochia (Bassia scoparia) [8]
  Plant response rating, Kochia: 30
  Kochia plant response rating: 50
[9]
  Plant response rating, Ragweed: 40
  Ragweed plant response rating: 80
[10]
  Plant response rating, Ryegrass, Italian: 30
  Ryegrass, Italian plant response rating: 60
[11]
  Plant response rating, Foxtail, Giant: 20
  Foxtail, Giant plant response rating: 80
[12]
  Plant response rating, Pigweed: 40
  Pigweed plant response rating: 60
[13]
  Plant response rating, Wheat: 0
  Wheat plant response rating: 0
Corn (Zea mays)
  Plant response rating, Corn: 0
  Corn plant response rating: 20
[14]
  Plant response rating, Blackgrass: 0
  Blackgrass plant response rating: 20
[15]
  Plant response rating, Galium: 40
  Galium plant response rating: 70

## Cc1cc(C)c(N(S(=O)(=O)C(F)(F)F)S(=O)(=O)C(F)(F)F)cc1C(=O)N1CCC(F)(F)CC1 [Compound 210]
[1]; [16]
  Plant response rating, Barnyardgrass: 90
[1]; 500 g ai/ha
  Plant response rating, Barnyardgrass: 100
Kochia (Bassia scoparia) [2]; [16]
  Plant response rating, Kochia: 30
Kochia (Bassia scoparia) [2]; 500 g ai/ha
  Plant response rating, Kochia: 90
[3]; [16]
  Plant response rating, Ragweed: 80
[3]; 500 g ai/ha
  Plant response rating, Ragweed: 90
[4]; [16]
  Plant response rating, Ryegrass, Italian: 50
[4]; 500 g ai/ha
  Plant response rating, Ryegrass, Italian: 100
[5]; [16]
  Plant response rating, Foxtail, Giant: 90
[5]; 500 g ai/ha
  Plant response rating, Foxtail, Giant: 100
[6]; [16]
  Plant response rating, Pigweed: 100
[6]; 500 g ai/ha
  Plant response rating, Pigweed: 100
[7]
  Plant response rating, Barnyardgrass: 20
  Barnyardgrass plant response rating: 90
Kochia (Bassia scoparia) [8]
  Plant response rating, Kochia: 50
  Kochia plant response rating: 90
[9]
  Plant response rating, Ragweed: 80
  Ragweed plant response rating: 90
[10]
  Plant response rating, Ryegrass, Italian: 20
  Ryegrass, Italian plant response rating: 40
[11]
  Plant response rating, Foxtail, Giant: 0
  Foxtail, Giant plant response rating: 30
[12]
  Plant response rating, Pigweed: 60
  Pigweed plant response rating: 100
[13]
  Plant response rating, Wheat: 0
  Wheat plant response rating: 60
Corn (Zea mays)
  Plant response rating, Corn: 10
  Corn plant response rating: 40
[14]
  Plant response rating, Blackgrass: 0
  Blackgrass plant response rating: 0
[15]
  Plant response rating, Galium: 80
  Galium plant response rating: 90
